According to US20240041764A1, “Sustained-Release Oral Fosamprenavir Formulation for Treatment of Reflux” (The Medical College of Wisconsin, Inc., priority 2022, published 2024):

Molecular target: T1, porcine pepsin A (Sus scrofa, UniProt P00791)
T1 construct: purchased Worthington Biochemical Corporation
Assay: competitive binding assay, fluorescence polarization with pepstatin-Alexa647
Conditions: 100 nM probe, 0.03 U/ul porcine pepsin A, 37.5% DMSO, 0.1 M HCl pH 1
Description: To examine whether HIV protease inhibitors bound and inhibited pepsin, we developed assays based on fluorescence polarization which measures size-dependent molecular rotation thereby permitting detection of degradation, association and dissociation events^80. A competitive binding assay was designed employing pepstatin, an inhibitor of sub-nanomolar affinity^81. Pepstatin-Alexa647 was synthesized by dissolving 1 mg pepstatin A (Sigma-Aldrich) in a 50:50 mixture of dimethylformamide (DMF) and dimethylsulfoxide (DMS) followed by the addition of N,N,N′,N′-Tetramethyl-O—(N-succinimidyl)uronium tetrafluoroborate (0.6 mg) and trimethylamine (10 μL) DMF. The mixture was stirred for 1 hour, after which 1 mg Alexa Fluor 647 Cadaverine, Disodium Salt (ThermoFisher Scientific) was added. After 2 hours, the solvents were evaporated under high vacuum (35° C.) and residue partially dissolved in 10% methanol and transferred onto a C18 cartridge (Waters Corporation, Milford, MA). Increasing percentages of methanol were used for the elution. Pepstatin-Alexa647 eluted at 45% methanol. An enzymatic inhibition assay was designed using casein substrate.^82 Bovine alpha casein (Sigma-Aldrich, St. Louis, MO) was labeled with Alexa Fluor 647 Carboxylic Acid, Succinimidyl Ester (ThermoFisher Scientific, Waltham, MA) as described.^82 Briefly, the two were combined at 2.5 ug/mg label to protein ratio in 0.1M sodium bicarbonate for 15 minutes and labeled casein was separated from unbound label in a Sephadex G-25 (Sigma-Aldrich) column comprised of 90×5 mm packed beads in a glass Pasteur pipette, eluted with dPBS pH7.4 (ThermoFisher Scientific). The fast-moving band (casein-bound fluorophore) was collected in ˜0.4 ml volume. […]
Assays were optimized using ranges of 0.3-1000 μM unlabeled pepstatin, 100-500 nM pepstatin-Alexa647 or casein-Alexa647 probe, 0.003-3 U/μl porcine pepsin (Worthington Biochemical Corporation, Lakewood, NJ), and 5-37.5% DMSO (HIV protease inhibitor diluent) in 0.1 M HCl, pH 1 with 0.01% v/v Tween-20 in 20 μl volumes in 384-well black optical plates (Nunc, Roskilde, DK) and read on a BioTek Cytation 5 (BioTek Instruments, Winooski, VT) with far red FP filter cube (excitation/emission 620/680 nm). […] Assays were performed twice with triplicate reactions read for five minutes and mean mP plotted against probe concentration (binding assay) or read at <2 minutes intervals over 30 minutes with mean mP of plotted over time (activity assay). Half maximal inhibitory concentration (IC50) of inhibitors were calculated from kinetic traces analyzed using an online tool (https://icekat.herokuapp.com/icekat)^83. mP was normalized to blank (absent inhibitor) to derive percent bound or activity.

T1 sequence (P00791 60-385): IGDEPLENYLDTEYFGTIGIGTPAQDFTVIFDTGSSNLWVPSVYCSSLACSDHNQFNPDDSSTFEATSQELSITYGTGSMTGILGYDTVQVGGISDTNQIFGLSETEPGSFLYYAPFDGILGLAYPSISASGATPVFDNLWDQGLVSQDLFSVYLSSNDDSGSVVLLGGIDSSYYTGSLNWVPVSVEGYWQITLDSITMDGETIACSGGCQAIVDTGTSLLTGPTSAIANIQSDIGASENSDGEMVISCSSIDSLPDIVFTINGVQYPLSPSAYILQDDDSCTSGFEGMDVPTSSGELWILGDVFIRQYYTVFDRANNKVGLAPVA

CC(C)CN(C[C@@H](O)[C@H](Cc1ccccc1)NC(=O)O[C@H]1CO[C@H]2OCC[C@H]21)S(=O)(=O)c1ccc(N)cc1 [darunavir, [(3aS,4R,6aR)-2,3,3a,4,5,6a-hexahydrofuro[2,3-b]furan-4-yl]N-[(2S,3R)-4-[(4-aminophenyl)sulfonyl-(2-methylpropyl)amino]-3-hydroxy-1-phenylbutan-2-yl]carbamate]
bound pepsin (competitive binding): low micromolar
